Earlier results in patent US9512385B2, “Disinfectant solution for nonionic soft contact lenses” (MENICON CO., LTD., priority 2012, dated 2016).

Details: background art statement

Q: With polylysine as the substance, how does the “IC50 value in cytotoxicity test relative to PHMB” value read?
A: about several hundredth part of that of PHMB
